Assay results taken from ChEMBL document CHEMBL3813616, “Discovery of novel 7-azaindoles as PDK1 inhibitors” (Bioorg Med Chem Lett, 2016).

Assays:
Design in all cases: scale not given: the % may be the effect or the level left
[1] = molecular target: T1, Serine/threonine-protein kinase 3 (Homo sapiens) (UniProt Q13188); assay: Inhibition of human MST2 (2 to 491 residues) assessed as enzyme activity at 1 uM using 33P ATP by radioactive filter binding assay
T1 sequence (whole entry): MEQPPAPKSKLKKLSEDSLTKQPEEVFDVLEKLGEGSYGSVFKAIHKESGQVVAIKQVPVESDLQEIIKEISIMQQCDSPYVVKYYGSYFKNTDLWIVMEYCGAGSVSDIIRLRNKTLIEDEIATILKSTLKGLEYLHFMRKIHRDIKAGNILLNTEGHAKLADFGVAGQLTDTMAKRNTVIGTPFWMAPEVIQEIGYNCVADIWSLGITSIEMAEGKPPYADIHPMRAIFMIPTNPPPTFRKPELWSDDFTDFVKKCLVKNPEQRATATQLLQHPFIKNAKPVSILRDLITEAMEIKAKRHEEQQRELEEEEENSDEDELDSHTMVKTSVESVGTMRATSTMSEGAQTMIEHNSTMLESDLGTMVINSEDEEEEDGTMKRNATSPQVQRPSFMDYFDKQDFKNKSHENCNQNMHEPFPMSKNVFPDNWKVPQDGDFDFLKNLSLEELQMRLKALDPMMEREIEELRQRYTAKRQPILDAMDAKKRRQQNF

[2] = molecular target: Serine/threonine-protein kinase PAK 5 (Homo sapiens) (UniProt Q9P286); assay: Inhibition of human PAK5 (2 to 719 residues) assessed as enzyme activity at 1 uM using 33P ATP by radioactive filter binding assay
[3] = molecular target: T2, Lymphokine-activated killer T-cell-originated protein kinase (Homo sapiens) (UniProt Q96KB5); assay: Inhibition of human PBK (2 to 297 residues) assessed as enzyme activity at 1 uM using 33P ATP by radioactive filter binding assay
T2 sequence (whole entry): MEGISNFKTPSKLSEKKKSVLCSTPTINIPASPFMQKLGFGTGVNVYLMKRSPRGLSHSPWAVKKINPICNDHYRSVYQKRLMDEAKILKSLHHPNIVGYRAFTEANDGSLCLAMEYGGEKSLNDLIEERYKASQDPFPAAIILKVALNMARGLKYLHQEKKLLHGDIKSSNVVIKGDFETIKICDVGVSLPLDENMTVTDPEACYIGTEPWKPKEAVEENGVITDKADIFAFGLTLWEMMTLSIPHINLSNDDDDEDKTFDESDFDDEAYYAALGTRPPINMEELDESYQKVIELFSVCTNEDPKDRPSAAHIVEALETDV

[4] = molecular target: T3, 3-phosphoinositide-dependent protein kinase 1 (Homo sapiens) (UniProt O15530); assay: Inhibition of human PDK1 (52 to 556 residues) assessed as enzyme activity at 1 uM using 33P ATP by radioactive filter binding assay
T3 sequence (whole entry): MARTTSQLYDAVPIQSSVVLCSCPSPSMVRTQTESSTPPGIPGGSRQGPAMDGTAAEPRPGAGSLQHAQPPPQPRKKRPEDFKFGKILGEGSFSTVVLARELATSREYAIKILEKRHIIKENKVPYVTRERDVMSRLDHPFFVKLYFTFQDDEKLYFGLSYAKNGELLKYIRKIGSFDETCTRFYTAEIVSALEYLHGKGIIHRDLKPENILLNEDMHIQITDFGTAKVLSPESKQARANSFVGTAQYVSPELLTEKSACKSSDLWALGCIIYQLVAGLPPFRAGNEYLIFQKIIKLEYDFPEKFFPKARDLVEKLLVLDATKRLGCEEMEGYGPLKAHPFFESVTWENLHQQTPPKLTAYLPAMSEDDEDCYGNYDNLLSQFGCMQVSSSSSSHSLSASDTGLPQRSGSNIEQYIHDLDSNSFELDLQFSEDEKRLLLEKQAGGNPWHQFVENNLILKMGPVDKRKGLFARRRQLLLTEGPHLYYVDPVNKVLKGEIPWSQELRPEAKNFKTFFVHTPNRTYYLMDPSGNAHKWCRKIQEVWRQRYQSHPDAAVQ

[5] = molecular target: cAMP-dependent protein kinase catalytic subunit alpha (Homo sapiens) (UniProt P17612); assay: Inhibition of human PKA alpha (2 to 351 residues) assessed as enzyme activity at 1 uM using 33P ATP by radioactive filter binding assay
[6] = molecular target: RAC-alpha serine/threonine-protein kinase (Homo sapiens) (UniProt P31749); assay: Inhibition of human PKBalpha (118 to 480 residues) assessed as enzyme activity at 1 uM using 33P ATP by radioactive filter binding assay
[7] = molecular target: Serine/threonine-protein kinase PLK1 (Homo sapiens) (UniProt P53350); assay: Inhibition of human PLK1 (1 to 603 residues) assessed as enzyme activity at 1 uM using 33P ATP by radioactive filter binding assay
[8] = molecular target: T4, MAP kinase-activated protein kinase 5 (Homo sapiens) (UniProt Q8IW41); assay: Inhibition of human PRAK (1 to 471 residues) assessed as enzyme activity at 1 uM using 33P ATP by radioactive filter binding assay
T4 sequence (whole entry): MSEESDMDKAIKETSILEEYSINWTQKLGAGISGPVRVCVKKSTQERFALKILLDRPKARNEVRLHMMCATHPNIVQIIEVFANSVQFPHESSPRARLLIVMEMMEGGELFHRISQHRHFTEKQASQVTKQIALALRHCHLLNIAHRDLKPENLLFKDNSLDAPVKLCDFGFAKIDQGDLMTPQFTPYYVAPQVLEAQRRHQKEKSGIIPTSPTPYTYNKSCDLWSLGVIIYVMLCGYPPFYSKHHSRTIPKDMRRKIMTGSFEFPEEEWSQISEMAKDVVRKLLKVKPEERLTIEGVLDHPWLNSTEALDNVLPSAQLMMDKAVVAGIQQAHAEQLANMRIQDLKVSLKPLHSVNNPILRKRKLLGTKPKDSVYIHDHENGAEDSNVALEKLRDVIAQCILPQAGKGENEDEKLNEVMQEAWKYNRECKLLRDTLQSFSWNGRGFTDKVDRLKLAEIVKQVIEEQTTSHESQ

[9] = molecular target: Tyrosine-protein kinase Yes (Homo sapiens) (UniProt P07947); assay: Inhibition of human YES1 (1 to 543 residues) assessed as enzyme activity at 1 uM using 33P ATP by radioactive filter binding assay
[10] = molecular target: Tyrosine-protein kinase BTK (Homo sapiens) (UniProt Q06187); assay: Inhibition of human BTK (2 to 659 residues) assessed as enzyme activity at 1 uM using 33P ATP by radioactive filter binding assay
Chain of Tyrosine-protein kinase BTK (Homo sapiens) (Q06187 whole entry, the tested form may be a part): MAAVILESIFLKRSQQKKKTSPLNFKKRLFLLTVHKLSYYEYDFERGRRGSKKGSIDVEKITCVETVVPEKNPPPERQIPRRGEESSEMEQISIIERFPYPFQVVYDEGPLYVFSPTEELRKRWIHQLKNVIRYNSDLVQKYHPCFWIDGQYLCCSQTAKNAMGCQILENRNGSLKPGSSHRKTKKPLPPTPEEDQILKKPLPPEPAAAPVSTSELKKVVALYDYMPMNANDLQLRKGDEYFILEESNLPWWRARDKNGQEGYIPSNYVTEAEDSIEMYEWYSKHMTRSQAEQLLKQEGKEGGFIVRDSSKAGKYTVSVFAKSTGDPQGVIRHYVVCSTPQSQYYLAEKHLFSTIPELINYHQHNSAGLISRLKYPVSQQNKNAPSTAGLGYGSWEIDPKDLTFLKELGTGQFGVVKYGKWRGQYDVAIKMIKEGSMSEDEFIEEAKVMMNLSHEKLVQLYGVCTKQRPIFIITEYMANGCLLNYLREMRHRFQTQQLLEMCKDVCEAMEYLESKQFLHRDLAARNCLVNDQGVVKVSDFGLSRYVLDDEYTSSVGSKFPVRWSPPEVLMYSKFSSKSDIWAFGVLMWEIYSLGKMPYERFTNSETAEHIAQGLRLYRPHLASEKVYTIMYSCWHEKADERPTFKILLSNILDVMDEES

Chain of Serine/threonine-protein kinase PAK 5 (Homo sapiens) (Q9P286 whole entry, looked up, the tested form may be a part): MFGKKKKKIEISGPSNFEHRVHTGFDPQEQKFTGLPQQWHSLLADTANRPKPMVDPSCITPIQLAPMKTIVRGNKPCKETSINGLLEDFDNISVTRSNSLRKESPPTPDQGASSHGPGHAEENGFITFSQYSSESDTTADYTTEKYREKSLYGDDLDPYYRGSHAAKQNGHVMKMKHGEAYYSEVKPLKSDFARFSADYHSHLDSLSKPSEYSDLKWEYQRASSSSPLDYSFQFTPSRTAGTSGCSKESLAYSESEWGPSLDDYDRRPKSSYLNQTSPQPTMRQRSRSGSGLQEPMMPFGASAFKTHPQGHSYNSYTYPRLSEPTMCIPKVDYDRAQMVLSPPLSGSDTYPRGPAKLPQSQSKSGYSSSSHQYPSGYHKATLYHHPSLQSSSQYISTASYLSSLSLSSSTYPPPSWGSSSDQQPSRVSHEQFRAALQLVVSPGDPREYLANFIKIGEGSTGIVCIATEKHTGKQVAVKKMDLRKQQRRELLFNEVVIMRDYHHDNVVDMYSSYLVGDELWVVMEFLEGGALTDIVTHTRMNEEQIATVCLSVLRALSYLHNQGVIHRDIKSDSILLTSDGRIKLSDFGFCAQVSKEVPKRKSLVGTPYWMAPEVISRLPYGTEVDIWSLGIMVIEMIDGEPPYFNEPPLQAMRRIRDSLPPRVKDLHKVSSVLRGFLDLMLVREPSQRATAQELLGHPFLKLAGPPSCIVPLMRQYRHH
Chain of RAC-alpha serine/threonine-protein kinase (Homo sapiens) (P31749 whole entry, the tested form may be a part): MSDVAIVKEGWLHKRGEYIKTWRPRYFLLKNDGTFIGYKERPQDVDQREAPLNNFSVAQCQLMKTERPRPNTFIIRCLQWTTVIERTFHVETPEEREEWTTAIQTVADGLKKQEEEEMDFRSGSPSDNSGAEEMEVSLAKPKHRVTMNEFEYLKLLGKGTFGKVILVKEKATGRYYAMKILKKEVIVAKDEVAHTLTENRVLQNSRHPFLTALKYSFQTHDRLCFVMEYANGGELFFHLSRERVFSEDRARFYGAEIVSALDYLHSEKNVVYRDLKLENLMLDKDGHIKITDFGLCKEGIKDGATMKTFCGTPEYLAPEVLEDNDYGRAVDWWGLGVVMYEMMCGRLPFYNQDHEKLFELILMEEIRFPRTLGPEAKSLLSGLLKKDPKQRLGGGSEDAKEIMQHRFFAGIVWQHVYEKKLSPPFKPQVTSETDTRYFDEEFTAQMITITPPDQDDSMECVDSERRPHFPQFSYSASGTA
Chain of Serine/threonine-protein kinase PLK1 (Homo sapiens) (P53350 whole entry, the tested form may be a part): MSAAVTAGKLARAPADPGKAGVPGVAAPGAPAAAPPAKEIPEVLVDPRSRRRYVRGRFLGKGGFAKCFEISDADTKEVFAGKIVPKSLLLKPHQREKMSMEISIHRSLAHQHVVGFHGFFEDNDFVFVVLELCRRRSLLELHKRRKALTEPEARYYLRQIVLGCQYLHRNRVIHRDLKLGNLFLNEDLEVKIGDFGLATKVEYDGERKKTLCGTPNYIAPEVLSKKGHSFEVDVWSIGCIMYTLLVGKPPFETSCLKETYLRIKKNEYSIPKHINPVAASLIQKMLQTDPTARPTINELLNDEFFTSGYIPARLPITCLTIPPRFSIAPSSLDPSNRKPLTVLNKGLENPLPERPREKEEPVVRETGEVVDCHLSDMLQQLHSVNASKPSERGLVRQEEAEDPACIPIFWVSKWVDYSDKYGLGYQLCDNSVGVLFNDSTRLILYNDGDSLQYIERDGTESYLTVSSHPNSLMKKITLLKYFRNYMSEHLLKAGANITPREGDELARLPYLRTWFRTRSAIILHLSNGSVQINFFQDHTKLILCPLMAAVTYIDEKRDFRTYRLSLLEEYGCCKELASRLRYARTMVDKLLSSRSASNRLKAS
Chain of Tyrosine-protein kinase Yes (Homo sapiens) (P07947 2-543 limits assumed): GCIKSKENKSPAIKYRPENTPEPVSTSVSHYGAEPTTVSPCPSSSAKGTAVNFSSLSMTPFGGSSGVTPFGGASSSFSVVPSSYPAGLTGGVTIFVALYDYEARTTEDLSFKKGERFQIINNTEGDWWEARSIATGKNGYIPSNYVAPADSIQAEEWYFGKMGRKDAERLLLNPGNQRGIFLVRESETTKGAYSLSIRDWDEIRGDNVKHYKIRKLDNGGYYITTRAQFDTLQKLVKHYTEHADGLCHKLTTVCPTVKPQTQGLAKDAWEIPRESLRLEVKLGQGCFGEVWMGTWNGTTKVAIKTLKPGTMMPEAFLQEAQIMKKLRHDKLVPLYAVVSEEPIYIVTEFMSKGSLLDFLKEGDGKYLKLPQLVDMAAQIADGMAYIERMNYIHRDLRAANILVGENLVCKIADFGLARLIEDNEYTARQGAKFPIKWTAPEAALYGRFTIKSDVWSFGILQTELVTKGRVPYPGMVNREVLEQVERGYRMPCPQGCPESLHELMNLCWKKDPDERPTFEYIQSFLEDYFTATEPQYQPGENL

| Compound | Activity [1] [%] | Activity [2] [%] | Activity [3] [%] | Activity [4] [%] | Activity [5] [%] | Activity [6] [%] | Activity [7] [%] | Activity [8] [%] | Activity [9] [%] | Activity [10] [%] |
| --- | --- | --- | --- | --- | --- | --- | --- | --- | --- | --- |
| CCc1cc(-c2c[nH]c3ncc(-c4cnn(C5CCNCC5)c4)cc23)nc(N)n1 | -63 | 200 | -95 | -80 | -38 | -10 | -41 | 4 | -46 | -31 |
| CCCCc1cc(-c2c[nH]c3ncc(-c4cnn(C5CCNCC5)c4)cc23)nc(N)n1 | -86 | -38 | -96 | -92 | -42 | -9 | -41 | -10 | -78 | -28 |
| CCCCc1cc(-c2c[nH]c3ncccc23)nc(N)n1 | -33 | 6 | -21 | -54 | -54 | -23 | -6 | 2 | -21 | – |
| Nc1nccc(-c2c[nH]c3ncccc23)n1 [MERIOLIN 1] | -20 | -30 | -40 | -12 | -66 | -23 | -26 | -17 | 2 | -13 |
